Experimental data reported in US20260207602A1, “EGFR INHIBITORS” (Blueprint Medicines Corporation, priority 2022, published 2026).

Experiments:
EGFR L858R = target: T1, EGFR L858R (Homo sapiens, UniProt P00533, L858R); assay: Biochemical EGFR inhibition assay (Caliper mobility shift), EGFR L858R; details: biochemical Caliper mobility shift assay, EGFR L858R enzyme; read-out: Enz EGFR L858R IC50
T1 construct: purchased SignalChem E10-122BG
Procedure: Inhibitory effects of the compounds of the disclosure were measured in biochemical assays that measure the phosphorylation activity of EGFR enzyme phosphorylates 2.5 micromolar 5-FAM-[…]-CONH2 peptide substrate (ProfilerPro Kinase Peptide Substrate 22, PerkinElmer, Part #760366) in the presence of adenosine-5′-triphosphate (ATP) and varying concentrations of the test compound in 100 mM 2-[4-(2-hydroxyethyl)piperazin-1-yl]ethanesulfonic acid (HEPES), pH 7.5, 10 mM MgCl2, 0.015% Brij-35, 1 mM dithiothreitol (DTT), 1.0% dimehylsulfoxide (DMSO). Assays were performed at 1.0 mM ATP or at ATP Km of the EGFR enzymes. Reactions proceeded until between 10% to 20% total peptides were phosphorylated at room temperature (25° C.) and were terminated with 35 mM 2,2′,2″,2′″-(ethane-1,2-diyldinitrilo)tetraacetic acid (EDTA). Product was detected using the Caliper mobility shift detection method where the phosphorylated peptide (product) and substrate were electrophoretically separated and measured. Percent activity was plotted against log concentration of compound and points to generate an apparent IC50. The following enzyme forms of • EGFR were examples that were used in these assays: • EGFR WT (SignalChem, E10-112G) • EGFR L858R (SignalChem, E10-122BG) • EGFR (d746-750) (SignalChem, E10-122JG) • EGFR L858R C797S (SignalChem, E10-122ZG) • EGFR (d746-750) C797S (SignalChem, E10-122TG)

[1] = target: intracellular phosphorylation of EGFR (Tyr1068) in PC-9 cells (Homo sapiens, UniProt P00533, DEL746-750); assay: PC-9 pEGFR AlphaLISA assay; format: cell-based; details: 4 hours incubation, read-out: Phos EGFR PC9 IC50
Chain of intracellular phosphorylation of EGFR (Tyr1068) in PC-9 cells (P00533 with tags, fused parts or gaps DEL746-750): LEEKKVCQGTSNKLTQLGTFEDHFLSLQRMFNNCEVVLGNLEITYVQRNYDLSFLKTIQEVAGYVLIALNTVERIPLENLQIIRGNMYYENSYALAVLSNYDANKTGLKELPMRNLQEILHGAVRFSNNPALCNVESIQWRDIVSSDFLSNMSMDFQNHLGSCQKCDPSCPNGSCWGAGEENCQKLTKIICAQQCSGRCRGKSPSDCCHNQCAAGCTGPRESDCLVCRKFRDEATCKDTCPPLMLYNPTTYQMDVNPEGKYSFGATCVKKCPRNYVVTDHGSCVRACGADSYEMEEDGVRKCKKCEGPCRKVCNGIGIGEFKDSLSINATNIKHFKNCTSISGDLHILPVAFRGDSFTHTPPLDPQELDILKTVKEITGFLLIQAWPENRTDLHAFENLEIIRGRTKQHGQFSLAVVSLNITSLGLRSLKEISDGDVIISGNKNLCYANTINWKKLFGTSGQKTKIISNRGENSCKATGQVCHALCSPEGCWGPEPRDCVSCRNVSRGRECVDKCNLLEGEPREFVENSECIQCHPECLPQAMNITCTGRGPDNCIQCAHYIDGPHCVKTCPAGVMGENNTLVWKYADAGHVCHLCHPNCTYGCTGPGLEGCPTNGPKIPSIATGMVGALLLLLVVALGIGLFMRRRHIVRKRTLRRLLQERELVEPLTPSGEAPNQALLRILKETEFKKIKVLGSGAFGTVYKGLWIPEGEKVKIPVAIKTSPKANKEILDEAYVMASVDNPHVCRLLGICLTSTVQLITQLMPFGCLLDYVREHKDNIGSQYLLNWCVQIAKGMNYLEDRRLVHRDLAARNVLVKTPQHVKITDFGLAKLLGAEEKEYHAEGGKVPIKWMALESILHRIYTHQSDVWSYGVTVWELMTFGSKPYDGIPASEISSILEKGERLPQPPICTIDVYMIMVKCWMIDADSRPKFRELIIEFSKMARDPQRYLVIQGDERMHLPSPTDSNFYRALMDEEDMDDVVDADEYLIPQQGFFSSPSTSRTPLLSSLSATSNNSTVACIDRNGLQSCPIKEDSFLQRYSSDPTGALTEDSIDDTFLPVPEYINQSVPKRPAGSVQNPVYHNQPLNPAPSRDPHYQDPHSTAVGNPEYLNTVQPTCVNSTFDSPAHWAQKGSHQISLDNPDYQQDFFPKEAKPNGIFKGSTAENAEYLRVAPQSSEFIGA
Procedure: PC-9/A431 pEGFR AlphaLISA Assays
Inhibitory effects of compounds were evaluated in cellular assays that measure level of intracellular phosphorylation of EGFR in PC-9 (ECACC, #90071810, Milipore/Sigma) and A431 cell lines (ATCC, CRL-1555) using AlphaLISA sureFire ultra p-EGFR (Tyr1068) assay kit (PerkinElmer, ALSU-PEGFR-A50K). PC-9 cells were seeded at 3.125×10^5 cells/ml in 40 μL phenol-free DMEM supplemented with 10% FBS per well of a 384 well plate (Corning, 3764), while A431 were seeded at […] in 40 μL in phenol-free DMEM with 0.5% FBS. Cells were allowed to adhere overnight at 37° C./5% CO2. On the next day, compounds were transferred at 4-fold, 10-point serial dilution from compound source plate to cell plates using liquid handler Echo550 and were incubated at 37° C./5% CO2 for 4 hours. A431 cells were stimulated prior harvesting for 10 min with EGF at final concentration of 30 ng/ml in the incubator. Medium was removed from the plates and cells were lysed with 10 μL of 1× AlphaLISA lysis buffer (supplemented with 1× protease/phosphatase inhibitor cocktail) followed by shaking at 600 rpm for 30 minutes at room temperature. Lysates were transferred to Optiplate (Apricot designs) and 5 ul of 1× acceptor bead mix (prepared just before use) was added to each well followed by incubation at room temperature for 1.5-2 h in dark. Then 5 μL of freshly-made donor bead mix is added to each well under subdued lighting or green filters, was mixed well on the shaker and the plate was sealed and left for an overnight incubation at room temperature in dark. On the next day, the plate was read the Envision using standard AlphaLisa settings. Percent of pEGFR inhibition was plotted against log concentration of compounds to generate IC50 values.

T1 sequence (P00533 25-1210 L858R): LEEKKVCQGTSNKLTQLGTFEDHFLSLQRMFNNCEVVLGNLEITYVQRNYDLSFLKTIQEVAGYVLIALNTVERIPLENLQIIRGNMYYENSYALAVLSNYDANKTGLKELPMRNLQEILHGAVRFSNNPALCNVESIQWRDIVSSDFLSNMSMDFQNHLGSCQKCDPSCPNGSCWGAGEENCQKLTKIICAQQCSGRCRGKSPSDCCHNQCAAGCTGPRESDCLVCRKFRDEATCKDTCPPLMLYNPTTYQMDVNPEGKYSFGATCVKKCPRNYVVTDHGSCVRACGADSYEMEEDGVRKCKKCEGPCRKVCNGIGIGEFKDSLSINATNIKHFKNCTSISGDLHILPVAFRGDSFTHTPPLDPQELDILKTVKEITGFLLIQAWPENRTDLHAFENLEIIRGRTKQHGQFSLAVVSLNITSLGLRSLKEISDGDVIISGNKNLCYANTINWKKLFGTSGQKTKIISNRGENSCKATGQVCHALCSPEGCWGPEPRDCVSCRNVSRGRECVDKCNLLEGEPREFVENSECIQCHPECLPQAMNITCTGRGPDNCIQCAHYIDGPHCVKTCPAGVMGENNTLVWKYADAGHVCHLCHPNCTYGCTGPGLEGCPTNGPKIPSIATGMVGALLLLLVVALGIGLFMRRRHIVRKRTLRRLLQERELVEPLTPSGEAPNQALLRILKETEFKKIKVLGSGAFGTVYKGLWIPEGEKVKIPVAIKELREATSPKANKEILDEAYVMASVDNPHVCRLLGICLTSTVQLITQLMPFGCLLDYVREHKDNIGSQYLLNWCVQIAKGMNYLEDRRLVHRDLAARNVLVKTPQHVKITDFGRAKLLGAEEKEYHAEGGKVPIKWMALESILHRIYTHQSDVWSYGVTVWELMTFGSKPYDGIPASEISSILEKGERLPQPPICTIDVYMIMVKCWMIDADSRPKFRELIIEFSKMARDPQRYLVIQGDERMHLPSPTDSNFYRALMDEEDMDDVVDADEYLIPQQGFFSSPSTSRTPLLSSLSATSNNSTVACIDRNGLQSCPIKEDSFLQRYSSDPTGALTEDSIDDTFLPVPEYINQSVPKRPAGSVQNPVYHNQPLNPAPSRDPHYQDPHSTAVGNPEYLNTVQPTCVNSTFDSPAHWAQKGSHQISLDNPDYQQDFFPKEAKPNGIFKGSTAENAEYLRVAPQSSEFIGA

Compound	IC50 (EGFR L858R) [nM]	IC50 [1] [nM]
C[C@@H](Oc1cc(-c2cnn(C)c2)cc2ncnc(Nc3ccc4ncsc4c3)c12)C(F)F (single isomer, unassigned) [Example 53]	≤ 10	–
C[C@@H](Oc1cc(-c2cnn(C)c2)cc2ncnc(Nc3ccc4ncsc4c3F)c12)C1(C)COC1 (single isomer, unassigned) [Example 87]	≤ 10	–
C[C@@H](Oc1cc(-c2cnn(C)c2)cc2ncnc(Nc3ccc4ncsc4c3F)c12)[C@H]1CCOC1 (single isomer, unassigned) [Example 89]	≤ 10	–
CC[C@@H](Oc1cc(-c2cnn(C)c2)cc2ncnc(Nc3ccc4ncsc4c3F)c12)C1COC1 (single isomer, unassigned) [Example 93]	≤ 10	–
COCC[C@@H](C)Oc1cc(-c2cnn(C)c2)cc2ncnc(Nc3ccc4ncsc4c3F)c12 (single isomer, unassigned) [Example 109]	≤ 10	–
COC[C@H](C)Oc1cc(N2CCN(C(C)C)C2=O)cc2ncnc(Nc3ccc4ncsc4c3)c12 (single isomer, unassigned) [Example 119]	≤ 10	–
CC(Oc1cc(-c2cn[nH]c2)cc2ncnc(Nc3ccc4ncsc4c3)c12)C1COC1 (single isomer, unassigned) [Example 123]	≤ 10	–
C[C@H](CN(C)C)Oc1cc(N2CC[C@@H](C(C)(C)O)C2)cc2ncnc(Nc3ccc4ncsc4c3)c12 (single isomer, unassigned) [Example 156]	≤ 10	–
COc1nn(C)cc1-c1cc(O[C@H](C)C2COC2)c2c(Nc3ccc4ncsc4c3)ncnc2c1 (single isomer, unassigned) [Example 171]	≤ 10	–
C[C@@H](Oc1cc(-c2cnn(C)c2)cc2ncnc(Nc3ccc4ncsc4c3)c12)[C@H]1CNCCO1 (single isomer, unassigned) [Example 208]	≤ 10	–
C[C@@H](Oc1cc(-c2cnn(C)c2)cc2ncnc(Nc3ccc4ncsc4c3)c12)[C@H]1CN(C)CCO1 (single isomer, unassigned) [Example 210]	≤ 10	–
C[C@@H](Oc1cc(-c2cnn(C)c2)cc2ncnc(Nc3ccc4ncsc4c3F)c12)C(=O)N(C)C (single isomer, unassigned) [Example 280]	≤ 10	–
C[C@H](Oc1cc(-c2cnn(C)c2)cc2ncnc(Nc3ccc4ncsc4c3F)c12)C(=O)N1CCOCC1 (single isomer, unassigned) [Example 283]	≤ 10	–
COc1nn(C)cc1-c1cc(O[C@@H](C)C(=O)N(C)C)c2c(Nc3ccc4ncsc4c3F)ncnc2c1 (single isomer, unassigned) [Example 288]	≤ 10	–
C[C@H](CO)Oc1cc(-c2cnn(C)c2)cc2ncnc(Nc3ccc4ncsc4c3F)c12 (single isomer, unassigned) [Example 290]	≤ 10	–
C[C@H](CO)Oc1cc(N2CCN(C)CC2)cc2ncnc(Nc3ccc4ncsc4c3)c12 (single isomer, unassigned) [Example 294]	≤ 10	10.1 to 50
C[C@H](CO)n1cc(-c2cc(O[C@H](C)C3COC3)c3c(Nc4ccc5ncsc5c4)ncnc3c2)cn1 (single isomer, unassigned) [Example 298]	≤ 10	–
CN1CC[C@H](Oc2cc(-c3cnn(C)c3)cc3ncnc(Nc4ccc5ncsc5c4)c23)[C@@H](F)C1 (single isomer, unassigned) [Example 345]	≤ 10	–
Cn1cc(-c2cc(O[C@H]3CCNC[C@@H]3F)c3c(Nc4ccc5ncsc5c4)ncnc3c2)cn1 (single isomer, unassigned) [Example 347]	≤ 10	–
COc1nn(C)cc1-c1cc(O[C@H]2CCNC[C@@H]2F)c2c(Nc3ccc4ncsc4c3)ncnc2c1 (single isomer, unassigned) [Example 361]	≤ 10	–
CN1C[C@H](F)[C@H](Oc2cc(-c3cnn(C)c3)cc3ncnc(Nc4ccc5ncsc5c4)c23)C1 (single isomer, unassigned) [Example 381]	≤ 10	10.1 to 50
CN1CC[C@H](Nc2cc3c(Nc4ccc5ncsc5c4)ncnc3cc2-c2ccn(C)n2)[C@H](F)C1 (single isomer, unassigned) [Example A06, N4-(benzo[d]thiazol-6-yl)-N6-((3S,4R)-3-fluoro-1-methylpiperidin-4-yl)-7-(1-methyl-1H-pyrazol-3-yl)quinazoline-4,6-diamine or N4-(benzo[d]thiazol-6-yl)-N6-((3R,4S)-3-fluoro-1-methylpiperidin-4-yl)-7-(1-methyl-1H-pyrazol-3-yl)quinazoline-4,6-diamine]	≤ 10	–
CO[C@@H]1CN(C)CC[C@H]1Oc1cc(-c2cnn(C)c2)cc2ncnc(Nc3ccc4ncsc4c3)c12 (single isomer, unassigned) [Example A44]	≤ 10	10.1 to 50
Cn1cc(-c2cc(O[C@@H]3CC[C@@H]3O)c3c(Nc4ccc5ncsc5c4)ncnc3c2)cn1 (single isomer, unassigned) [Example A52]	≤ 10	–

The remaining lines, values ahead:

IC50 (EGFR L858R) [nM]	IC50 [1] [nM]	Compound
≤ 10	10.1 to 50	Cn1cc(-c2cc(OCC3CCOC3)c3c(Nc4ccc5ncsc5c4)ncnc3c2)cn1 (single isomer, unassigned) [Example 42]
≤ 10	10.1 to 50	Cn1cc(-c2cc(O[C@@H]3CCOC[C@@H]3F)c3c(Nc4ccc5ncsc5c4)ncnc3c2)cn1 (single isomer, unassigned) [Example 44]
≤ 10	10.1 to 50	CN1CC[C@@](C)(COc2cc(-c3cnn(C)c3)cc3ncnc(Nc4ccc5ncsc5c4)c23)C1=O (single isomer, unassigned) [Example 56]
≤ 10	–	COc1nn(C)cc1-c1cc(O[C@H](C)C2COC2)c2c(Nc3ccc4ncsc4c3F)ncnc2c1 (single isomer, unassigned) [Example 79]
≤ 10	–	C[C@@H](Oc1cc(-c2cnn(CC(C)(C)O)c2)cc2ncnc(Nc3ccc4ncsc4c3)c12)C1COC1 (single isomer, unassigned) [Example 128]
≤ 10	–	CN(C)C[C@@H](Oc1cc(-c2cnn(C)c2)cc2ncnc(Nc3ccc4ncsc4c3)c12)C(F)F (single isomer, unassigned) [Example 152]
≤ 10	10.1 to 50	COC[C@H](C)Oc1cc(N2CCN(C)CC2)cc2ncnc(Nc3ccc4ncsc4c3)c12 (single isomer, unassigned) [Example 206]
≤ 10	–	C[C@@H](Oc1cc(-c2cnn(C(C)(C)CO)c2)cc2ncnc(Nc3ccc4ncsc4c3)c12)C1COC1 (single isomer, unassigned) [Example 292]
≤ 10	–	CN1CC[C@@H](Nc2cc3c(Nc4ccc5ncsc5c4)ncnc3cc2-c2ccn(C)n2)[C@H](F)C1 (single isomer, unassigned) [Example 328]
≤ 10	–	CN1C[C@H](F)C[C@H](Oc2cc(-c3cnn(C)c3)cc3ncnc(Nc4ccc5ncsc5c4)c23)C1 (single isomer, unassigned) [Example 337]
≤ 10	–	CN1CC[C@@H](Oc2cc(-c3cnn(C)c3)cc3ncnc(Nc4ccc5ncsc5c4)c23)[C@@H](F)C1 (single isomer, unassigned) [Example 341]
≤ 10	10.1 to 50	Cn1cc(-c2cc(O[C@@H]3C[C@@H](O)[C@@H](O)C3)c3c(Nc4ccc5ncsc5c4)ncnc3c2)cn1 (single isomer, unassigned) [Example A23]
≤ 10	10.1 to 50	CN1CC[C@H](Oc2cc(-c3cnn(C)c3)cc3ncnc(Nc4ccc5ncsc5c4)c23)[C@@H](O)C1 (single isomer, unassigned) [Example A36]
10.1 to 50	–	CN1CC[C@H](Oc2cc(-c3cnn(C)c3)cc3ncnc(Nc4ccc5ncsc5c4F)c23)C1 [Example 16, (S)-7-fluoro-N-(7-(1-methyl-1H-pyrazol-4-yl)-5-((1-methylpyrrolidin-3-yl)oxy)quinazolin-4-yl)benzo[d]thiazol-6-amine]
